From patent publication US7645463B2, “Method for treating diabetic vascular complications” (National Yang-Ming University, priority 2006, dated 2010)
Marks after values point to notes of the source that are not given here.

Tested on: Mouse Kupffer cell
Assay: Phagocytosis assay of Kupffer cell (FITC-beads ingestion)
Assay type: cell-based
Conditions: relative to control (2% FCS) = 1
Procedure: C57BL6/j mice were intraperitoneally (ip) injected with a mixture of Rompun® xylazine anesthesia and ketamin (S-(+)-ketamine) anesthesia mixed at a ratio of 1:3. The central vein of each mouse was cannulated with a polyethylene catheter, and the liver tissue was perfused with 10 ml Ca^2+-free HBSS buffer for 10 minutes at a perfusion rate of 1 ml/min, and HBSS buffer containing 0.05% collagenase type IV for 10 minutes at the perfusion rate of 1 mL/min to soften the liver tissue. The softened liver tissue was excised, rinsed and cut open by a pair of forceps to release cell suspension from the liver tissue. After the connective tissue was detached, the cell suspension was filtered with a #53 nylon mesh and centrifuged at 30 g for 3 minutes. The cell suspension was then centrifuged at 600 g for 5 minutes. The supernatant was discarded and the cell pellet was resuspended in 15 mL RBC lysis buffer and allowed a reaction to take place for 2 minutes. The cell suspension was added with 15 mL of RPMI 1640 medium and centrifuged, and the cell pellet was resuspended in 5 mL of RPMI 1640 medium and layered on top of a Percoll™ solution consisting of 25% (v/v) Percoll™ density gradient medium. The cell solution was centrifuged, and the cell pellet containing enriched Kupffer cells was collected. The enriched Kupffer cells were washed with RPMI 1640 medium and resuspended in serum-free RPMI 1640 medium.
Kupffer cells were seeded (4×10^5 cells/well) in a 96-well culture plate and cultured in RPMI medium supplemented with 10% FCS, also known as 10% FCS RPMI medium hereinafter, for at least 24 hours. The medium was changed to 2% FCS RPMI medium added with PH of different concentrations (1000 μg/mL, 100 μg/mL, 10 μg/mL and 1 μg/mL). […] FluoroQuench™ dye (0.5 μL/well) was added to quench the fluorescence from the […] 1 μm-sized FITC-beads. The fluorescence of the ingested 1 μm-sized FITC-beads was measured with a cytofluorometer after one hour and normalized with the fluorescence of the control group to determine the relative phagocytosis index as shown in Table 2.

tuftsin
Mouse Kupffer cell Ingestion phagocytosis Index (1 μg/ml): 1.49** | Mouse Kupffer cell Ingestion phagocytosis Index (10 μg/ml): 1.2* | Mouse Kupffer cell Ingestion phagocytosis Index (100 μg/ml): 1.01
